According to patent US6737383B1, “Herbicidal oxadiazolidines” (priority 1999, dated 2004):

Key:
bedstraw = experiment: Test B pre/postemergence bedstraw; assay type: in vivo, Galium aparine; settings: Rate 62 g/ha, Postemergence; scale 0 to 10 (0 no effect, 10 complete control)
Method in brief: (§1)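 Response is a visual 0-to-10 score relative to untreated plants, where 0 means no effect and 10 means complete control, taken twelve to sixteen days after application. Treatments went onto soil at planting and onto foliage of 1- to 4-leaf plants, using a surfactant-containing non-phytotoxic solvent.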

blackgrass = experiment: Test B pre/postemergence blackgrass; assay type: in vivo, Alopecurus myosuroides
Method in brief: as §1

surinam grass = experiment: Test B pre/postemergence surinam grass; assay type: in vivo, Brachiaria decumbens
Method in brief: as §1

cocklebur = experiment: Test B pre/postemergence cocklebur; assay type: in vivo, Xanthium strumarium
Method in brief: as §1

corn = experiment: Test B pre/postemergence corn; assay type: in vivo, Zea mays
Method in brief: as §1

crabgrass = experiment: Test B pre/postemergence crabgrass; assay type: in vivo, Digitaria sanguinalis
Method in brief: as §1

giant foxtail = experiment: Test B pre/postemergence giant foxtail; assay type: in vivo, Setaria faberii
Method in brief: as §1

morningglory = experiment: Test B pre/postemergence morningglory; assay type: in vivo, Ipomoea hederacea
Method in brief: as §1

soybean = experiment: Test B pre/postemergence soybean; assay type: in vivo, Glycine max
Method in brief: as §1

velvetleaf = experiment: Test B pre/postemergence velvetleaf; assay type: in vivo, Abutilon theophrasti
Method in brief: as §1

wheat = experiment: Test B pre/postemergence wheat; assay type: in vivo, Triticum aestivum
Method in brief: as §1

wild oat = experiment: Test B pre/postemergence wild oat; assay type: in vivo, Avena fatua
Method in brief: as §1

purple nutsedge = experiment: Test B pre/postemergence purple nutsedge; assay type: in vivo, Cyperus rotundus
Method in brief: as §1

rice = experiment: Test B flood test rice; assay type: in vivo, Oryza sativa
Method in brief: (§2)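 Read-out is a visual response score from 0 (no effect) to 10 (complete control), assigned by comparison with untreated controls. Treatment was applied at the 2-leaf stage, and plants stayed in the greenhouse for twelve to sixteen days before scoring.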

smallflower flatsedge = experiment: Test B flood test smallflower flatsedge; assay type: in vivo, Cyperus difformis
Method in brief: as §2

duck salad = experiment: Test B flood test duck salad; assay type: in vivo, Heteranthera limosa
Method in brief: as §2

bamyardgrass = experiment: Test B flood test barnyardgrass; assay type: in vivo, Echinochloa crus-galli
Method in brief: as §2

[1] = Postemergence, Rate 250 g/ha, scale 0 to 10
[2] = Postemergence, Rate 500 g/ha, scale of 0 to 10 where 0 is no effect and 10 is complete control
[3] = Preemergence, Rate 62 g/ha, scale of 0 to 10 where 0 is no effect and 10 is complete control
[4] = Preemergence, Rate 125 g/ha, scale of 0 to 10 where 0 is no effect and 10 is complete control
[5] = Preemergence, Rate 250 g/ha, scale 0 to 10, 0 is no effect, 10 is complete control
[6] = Preemergence, Rate 500 g/ha, scale 0 to 10, 0 is no effect, 10 is complete control
[7] = Rate 62 g/ha, Postemergence, scale 0 to 10 (0 no effect, 10 complete control)
[8] = Rate 125 g/ha, Postemergence, scale 0 to 10, 0 is no effect, 10 is complete control
[9] = Rate 62 g/ha, flood test species, Pre-emergence, visual evaluation after twelve to sixteen days
[10] = Rate 125 g/ha, under heading Pre-emergence, flood test species, visual evaluation after twelve to sixteen days
[11] = Rate 250 g/ha, Pre-emergence (flood test species), scale 0 to 10, 0 is no effect, 10 is complete control
[12] = Rate 500 g/ha, Pre-emergence, flood test species, scale 0 to 10 (0 no effect, 10 complete control)

## COCC(OC)n1c(=O)on(C(=O)N(c2ccc(F)cc2)C(C)C)c1=O (centres unmarked) [Compound 446]
bedstraw
  Bedstraw plant response rating: 0
blackgrass; [1]
  Blackgrass plant response rating: 8
blackgrass; [2]
  Blackgrass plant response rating: 9
blackgrass; [3]
  Plant response rating, Blackgrass: 5
blackgrass; [4]
  Plant response rating, Blackgrass: 7
blackgrass; [5]
  Blackgrass plant response rating: 8
blackgrass; [6]
  Blackgrass plant response rating: 10
blackgrass; [7]
  Blackgrass plant response rating: 4
blackgrass; [8]
  Blackgrass plant response rating: 8
Surinam grass; Postemergence, Rate 250 g/ha, scale 0 to 10, 0 no effect, 10 complete control
  B. signalgrass plant response rating: 6
Surinam grass; [2]
  B. signalgrass plant response rating: 8
Surinam grass; [3]
  Plant response rating, B. signalgrass: 0
Surinam grass; [4]
  Plant response rating, B. signalgrass: 6
Surinam grass; [5]
  B. signalgrass plant response rating: 7
Surinam grass; [6]
  B. signalgrass plant response rating: 8
Surinam grass; [7]
  B. signalgrass plant response rating: 2
Surinam grass; [8]
  B. signalgrass plant response rating: 3
cocklebur; [1]
  Cocklebur plant response rating: 0
cocklebur; [2]
  Cocklebur plant response rating: 0
cocklebur; [3]
  Plant response rating, Cocklebur: 0
cocklebur; [4]
  Plant response rating, Cocklebur: 0
cocklebur; [5]
  Cocklebur plant response rating: 0
cocklebur; [6]
  Cocklebur plant response rating: 0
cocklebur; [7]
  Cocklebur plant response rating: 0
cocklebur; [8]
  Cocklebur plant response rating: 0
corn; [1]
  Corn plant response rating: 0
corn; [2]
  Corn plant response rating: 5
corn; [3]
  Plant response rating, Corn: 0
corn; [4]
  Plant response rating, Corn: 0
corn; [5]
  Corn plant response rating: 2
corn; [6]
  Corn plant response rating: 6
corn; [7]
  Corn plant response rating: 0
corn; [8]
  Corn plant response rating: 0
crabgrass; [1]
  Crabgrass plant response rating: 9
crabgrass; [2]
  Crabgrass plant response rating: 9
crabgrass; [3]
  Plant response rating, Crabgrass: 8
crabgrass; [4]
  Plant response rating, Crabgrass: 8
crabgrass; [5]
  Crabgrass plant response rating: 9
crabgrass; [6]
  Crabgrass plant response rating: 9
crabgrass; [7]
  Crabgrass plant response rating: 5
crabgrass; [8]
  Crabgrass plant response rating: 9
Giant foxtail; [1]
  Giant foxtail plant response rating: 9
Giant foxtail; [2]
  Giant foxtail plant response rating: 9
Giant foxtail; [3]
  Plant response rating, Giant foxtail: 9
Giant foxtail; [4]
  Plant response rating, Giant foxtail: 10
Giant foxtail; [5]
  Giant foxtail plant response rating: 10
Giant foxtail; [6]
  Giant foxtail plant response rating: 10
Giant foxtail; [7]
  Giant foxtail plant response rating: 6
Giant foxtail; [8]
  Giant foxtail plant response rating: 9
morningglory; [1]
  Morningglory plant response rating: 3
morningglory; [2]
  Morningglory plant response rating: 3
morningglory; [3]
  Plant response rating, Morningglory: 0
morningglory; [4]
  Plant response rating, Morningglory: 0
morningglory; [5]
  Morningglory plant response rating: 0
morningglory; [6]
  Morningglory plant response rating: 9
morningglory; [7]
  Morningglory plant response rating: 2
morningglory; [8]
  Morningglory plant response rating: 2
soybean; [1]
  Soybean plant response rating: 4
soybean; [2]
  Soybean plant response rating: 4
soybean; [3]
  Plant response rating, Soybean: 0
soybean; [4]
  Plant response rating, Soybean: 0
soybean; [5]
  Soybean plant response rating: 2
soybean; [6]
  Soybean plant response rating: 2
soybean; [7]
  Soybean plant response rating: 1
soybean; [8]
  Soybean plant response rating: 2
velvetleaf; [1]
  Velvetleaf plant response rating: 2
velvetleaf; [2]
  Velvetleaf plant response rating: 3
velvetleaf; [3]
  Plant response rating, Velvetleaf: 0
velvetleaf; [4]
  Plant response rating, Velvetleaf: 3
velvetleaf; [5]
  Velvetleaf plant response rating: 7
velvetleaf; [6]
  Velvetleaf plant response rating: 10
velvetleaf; [7]
  Velvetleaf plant response rating: 0
velvetleaf; [8]
  Velvetleaf plant response rating: 0
wheat; [1]
  Wheat plant response rating: 3
wheat; [2]
  Wheat plant response rating: 3
wheat; [3]
  Plant response rating, Wheat: 0
wheat; [4]
  Plant response rating, Wheat: 2
wheat; [5]
  Wheat plant response rating: 3
wheat; [6]
  Wheat plant response rating: 7
wheat; [7]
  Wheat plant response rating: 0
wheat; [8]
  Wheat plant response rating: 0
Wild oat; [1]
  Wild oats plant response rating: 3
Wild oat; [2]
  Wild oats plant response rating: 3
Wild oat; [3]
  Plant response rating, Wild oats: 0
Wild oat; [4]
  Plant response rating, Wild oats: 5
Wild oat; [5]
  Wild oats plant response rating: 8
Wild oat; [6]
  Wild oats plant response rating: 10
Wild oat; [7]
  Wild oats plant response rating: 0
Wild oat; [8]
  Wild oats plant response rating: 0
Purple nutsedge; [1]
  Nutsedge plant response rating: 0
Purple nutsedge; [2]
  Nutsedge plant response rating: 0
Purple nutsedge; [3]
  Plant response rating, Nutsedge: 0
Purple nutsedge; [4]
  Plant response rating, Nutsedge: 0
Purple nutsedge; [5]
  Nutsedge plant response rating: 0
Purple nutsedge; [6]
  Nutsedge plant response rating: 0
Purple nutsedge; [7]
  Nutsedge plant response rating: 0
Purple nutsedge; [8]
  Nutsedge plant response rating: 0
rice; [9]
  Plant response rating, Rice (0 to 10 scale, 0 is no effect, 10 is complete control): 0
rice; [10]
  Rice plant response rating (0 to 10 scale, 0 is no effect, 10 is complete control): 0
rice; [11]
  Rice plant response rating: 0
rice; [12]
  Rice plant response rating: 0
Smallflower flatsedge; [9]
  Plant response rating, S. Flatsedge (0 to 10 scale, 0 is no effect, 10 is complete control): 0
Smallflower flatsedge; [10]
  S. Flatsedge plant response rating (0 to 10 scale, 0 is no effect, 10 is complete control): 0
Smallflower flatsedge; [11]
  S. Flatsedge plant response rating: 0
Smallflower flatsedge; [12]
  S. Flatsedge plant response rating: 0
Duck salad; [9]
  Plant response rating, Ducksalad (0 to 10 scale, 0 is no effect, 10 is complete control): 0
Duck salad; [10]
  Ducksalad plant response rating (0 to 10 scale, 0 is no effect, 10 is complete control): 0
Duck salad; [11]
  Ducksalad plant response rating: 0
Duck salad; [12]
  Ducksalad plant response rating: 0
bamyardgrass; [9]
  Plant response rating, Barnyardgrass (0 to 10 scale, 0 is no effect, 10 is complete control): 0
bamyardgrass; [10]
  Barnyardgrass plant response rating (0 to 10 scale, 0 is no effect, 10 is complete control): 0
bamyardgrass; [11]
  Barnyardgrass plant response rating: 0
bamyardgrass; [12]
  Barnyardgrass plant response rating: 0
